In patent US20090246208A1, “METHODS FOR PREVENTING AND TREATING CANCER METASTASIS AND BONE LOSS ASSOCIATED WITH CANCER METASTASIS” (Novartis AG, priority 2006, published 2009):

What was measured:
[1] = test system: osteolytic damage caused by tumor growth at the bony site; test: Zometa dose-response study, osteolysis caused by tumor growth at the bony site (x-ray osteolysis score, FIG. 14); format: in vivo, mice
From the text: This Example establishes the dose-dependent, anti-resorptive effects of Zometa (zoledronate) in an animal model (FIG. 14). […] Osteolysis score based on x-ray image in last-day of study (FIG. 14):
(§1) 1=Equivocal or minimal lesion with normal cortex architecture;
(§2) 2=Definite lytic lesion with minimal cortex/architecture disruption
(§3) 3=Large lesion(s) with cortex/Architecture disruption
(§4) 4=Gross destruction with no preserved architecture

[2] = test system: MDA-MB-231Luc cells; test: Combination study: intratibial MDA-MB-231Luc cells in Nu/Nu mice, Faxitron x-ray osteolysis scoring (FIGS. 15-17); format: in vivo
Description: Two weeks after intratibial inoculation of 6×10^5 MDA-MB-231Luc cells, Nu/Nu mice were treated with 5A1/5B4 (10 mg/kg once weekly), Zometa (0.03 mg/kg twice weekly) or both antibody and bisphosphonate. Bone lesions were monitored weekly by Faxitron analysis (x-ray technology), and at the end of the study, all animals were subjected to a final x-ray, and the images collected and distributed for scoring of the severity of lesions.
Mean osteolysis scores were calculated from 1) an average of scores from 3 separate volunteer scorers and 2) a group average (originally 10 animals/group).
Osteolysis score based on x-ray image in last day of study:
as §1, §2, §3, §4

[3] = test system: osteoclasts differentiated from human bone marrow CD34+ cells; test: Differentiated osteoclast activity, OsteoLyse Assay Kit (Human Collagen) (FIGS. 18, 19); format: cell-based; conditions: added on day 15, supernatant sampled on day 17
Description: The human bone marrow CD34+ cells (Biowhittaker catalog number 2M-101 A, 3×10^5 cells/vial) were induced to differentiate into osteoclasts under the experimental conditions described here. On Day 1, CD34+ cells were thawed from one frozen vial into 10 ml of media (Alpha MEM with 10% FCS, 1×Pen Strep and 1×fungizone) The cells were washed once and re-suspended in 2 ml of media and plate into onto the OsteoLyse plate (OsteoLyse™ Assay Kit (Human Collagen), Cambrex) at 100 ul per well. On day 2, without removing the original media, add to each well 50 ul of 4×CSF-1 to 30 ng/ml final concentration and 50 ul of 4×RANKL (sRANKL, Chemicon catalog #GF091, 10 ug/package) to final concentration of 100 ng/ml. On day 7, add to each well 50 ul of 5×RANKL to final concentration of 100 ng/ml. On day 15, antibodies (either Chir-RX1 or control antibody) or Zometa were added at the indicated concentrations. On day 17, 10 ul of supernatant of the cell culture was sampled and mixed with 200 μl of Fluorophore Releasing Reagent in each well of the black 96-well assay plate (included in the OsteoLyse Assay Kit).

[4] = test system: M-CSF biological activity; conditions: cited from earlier work
[5] = test system: MCSF-R; conditions: cited from earlier work

Row | Molecule | dose response of anti-resorptive effect ([1]; mice treated with increasing concentrations of Zometa) | osteolytic damage caused by tumor growth at the bony site (osteolysis score based on x-ray image) ([1]; ≧0.03 mg/kg Zometa, last day of study, FIG. 14) | osteolytic damage caused by tumor growth at the bony site (mean osteolysis scores, FIG. 16) ([2]; 0.03 mg/kg Zometa, 10 mg/kg anti-MCSF antibody, combination regimen, last day of study) | treating osteolysis (single agents) ([2]; antibody 10 mg/kg once weekly, Zometa 0.03 mg/kg twice weekly, treatment from two weeks after inoculation) | severity of lesions in representative faxitron images (FIG. 17) ([2]; compared to untreated animals) | differentiated osteoclast activity [3] | biological activity, lower than native M-CSF [4] | receptor-binding activity [5]
1 | O=P(O)(O)C(O)(Cn1ccnc1)P(=O)(O)O [Zometa, zoledronate] | a dose response effect was observed | inhibited the osteolytic damage | inhibited the osteolytic damage | effective in treating osteolysis | relatively minor lesions | inhibits differentiated osteoclast activity in a dose-dependent manner |  | 
2 | M-CSF (Q20A, V78K): double mutant of M-CSF testing solvent accessible residues in the central portion of helices A and C (protein, UniProt P09603 33-554, looked up, variant Q20A V78K) Macrophage colony-stimulating …: EEVSEYCSHMIGSGHLQSLARLIDSQMETSCQITFEFVDQEQLKDPVCYLKKAFLLVQDIMEDTMRFRDNTPNAIAIKQLQELSLRLKSCFTKDYEEHDKACVRTFYETPLQLLEKVKNVFNETKNLLDKDWNIFSKNCNNSFAECSSQDVVTKPDCNCLYPKAIPSSDPASVSPHQPLAPSMAPVAGLTWEDSEGTEGSSLLPGEQPLHTVDPGSAKQRPPRSTCQSFEPPETPVVKDSTIGGSPQPRPSVGAFNPGMEDILDSAMGTNWVPEEASGEASEIPVPQGTELSPSRPGGGSMQTEPARPSNFLSASSPLPASAKGQQPADVTGTALPRVGPVRPTGQDWNHTPQKTDHPSALLRDPPEPGSPRISSLRPQGLSNPSTLSAQPQLSRSHSSGSVLPLGELEGRRSTRDRRSPAEPEGGPASEGAARPLPRFNSVPLTDTGHERQSEGSFSPQLQESVFHLLVPSVILVLLAVGGLLFYRWRRRSHQEPQRADSPLEQPEGSPLTQDDRQVELPV |  |  |  |  |  |  | 8-10 fold | correspondingly lower
